Data: US11377436B2, “EAAT2 enhancing molecules” (THE BRIGHAM AND WOMEN'S HOSPITAL, INC., priority 2017, dated 2022)

What was measured:
[1] = tested on: human EAAT2; assay: In vitro assay in primary astrocyte cultures (PA-EAAT2 cells), EAAT2 protein levels by Western blot; type: cell-based; conditions: for In vitro - fold increase for EAAT2 in cultured astrocytes at indicated concentration (maximum activity): PA-EAAT2 cells treated 24 hr at 0.25-25 μM, relative to DMSO controls, value at the concentration that reaches maximum activity; for indicated concentration that reaches maximum activity (EAAT2 increase in cultured astrocytes): PA-EAAT2 cells, 24 hr, tested at 0.25, 0.5, 1, 2.5, 5, 10 and 25 μM
Procedure: In vitro assay in primary astrocyte cultures. Example compounds were initially evaluated in PA-EAAT2 cells, a primary astrocyte stably expressing human EAAT2 mRNAs (Kong et al., J Clin Invest. 124:1255-67). Cells were treated with the example compounds at 0.25 μM, 0.5 μM, 1 μM, 2.5 μM, 5 μM, 10 μM, and 25 μM for 24 hr and then harvested for measuring EAAT2 protein levels by Western blot analysis.

[2] = tested on: EAAT2; assay: In vivo assay in wild-type mice, EAAT2 protein levels in forebrain gliosomes by Western blot; conditions: C57BL/6J mice, 40 mg/kg oral gavage, relative to vehicle controls
Procedure: In vivo assay in wild-type mice. Example compounds that were capable of increasing EAAT2 protein expression in cultured astrocytes were further evaluated in C57BL/6J mice. Mice were treated by oral gavage with the compound at 40 mg/kg. At 24 hr post-treatment, mice were euthanized and forebrains were harvested for the gliosome preparation (Dunkley et al., Nat Protoc 3, 1718-1728). Gliosomes are enriched with astrocytic processes, and majority of EAAT2 is localized in astrocytic processes (gliosomes). EAAT2 protein levels in gliosomes were determined by Western blot analysis.

| Compound | In vitro - fold increase for EAAT2 in cultured astrocytes at indicated concentration (maximum activity) [1] | indicated concentration that reaches maximum activity (EAAT2 increase in cultured astrocytes) [1] | In vivo - fold increase for EAAT2 in mouse forebrain at 24 hr post treatment (40 mg/kg by PO) [2] |
| --- | --- | --- | --- |
| O=C(Nc1ccc(-c2ccccn2)nc1)c1cccc(Cl)c1 [Example 23, N-([2,2′-bipyridin]-5-yl)-3-chlorobenzamide] | 1.84 fold | (2.5 μM) | 1.45 fold |
| O=C(Nc1ccc(-c2ccccn2)nc1)c1ccc(F)cc1 [Example 19, N-([2,2′-bipyridin]-5-yl)-4-fluorobenzamide] | 1.97 fold | (1 μM) | 1.41 fold |
| O=C(Nc1cnc(-c2ccccn2)nc1)c1ccccc1 [Example 63, N-(2-(pyridin-2-yl)pyrimidin-5-yl)benzamide] | 1.32 fold | (5 μM) | no increase |
| O=C(Nc1ncc(-c2ccccn2)cn1)c1ccccc1 [Example 48, N-(5-(pyridin-2-yl)pyrimidin-2-yl)benzamide] | 1.58 fold | (2.5 μM) | 1.45 fold |
| CN(C)CCOc1cnc(-c2ccccn2)cn1 [Example 136, N,N-dimethyl-2-((5-(pyridin-2-yl)pyrazin-2-yl)oxy)ethan-1-amine] | no increase |  | no increase |
| O=C(Nc1ccc(-c2ccccn2)nc1)c1ccc(Cl)cc1 [Example 22, N-([2,2′-bipyridin]-5-yl)-4-chlorobenzamide] | 1.64 fold | (0.5 μM) | 1.20 fold |
| O=C(Nc1ccc(-c2ccccn2)nc1)c1ccccc1 [Example 18, N-([2,2′-bipyridin]-5-yl)benzamide] | 2.45 fold | (1 μM) | 1.56 fold |
| CN(C)CCOc1ccc(-c2ccccn2)cn1 [Example 94, 2-([2,3′-bipyridin]-6′-yloxy)-N,N-dimethylethan-1-amine] | 1.51 fold | (5 μM) | 1.49 fold |
| O=C(Nc1cnc(-c2ccccn2)cn1)c1ccccc1 [Example 33, N-(5-(pyridin-2-yl)pyrazin-2-yl)benzamide] | no increase |  | no increase |
| COc1ccc(C(=O)Nc2ccc(-c3ccccn3)nc2)cc1 [Example 21, N-([2,2′-bipyridin]-5-yl)-4-methoxybenzamide] | 1.73 fold | (0.5 μM) | 1.34 fold |
| O=C(Nc1ccc(-c2ccccn2)cn1)c1ccccc1 [Example 3, N-([2,3′-bipyridin]-6′-yl)benzamide] | 1.68 fold | (5 μM) | 1.42 fold |
| CN(C)CCOc1ncc(-c2ccccn2)cn1 [Example 157, N,N-dimethyl-2-((5-(pyridin-2-yl)pyrimidin-2-yl)oxy)ethan-1-amine] | 1.54 fold | (1 μM) | 1.37 fold |
